Data set [1] is described as follows: Water content with Karl-Fisher moisture meter after exposure to temperature/relative humidity (hygroscopicity, hydrate stability).
Data set [2] concerns hyperlipidemia-induced rats. The experiment in a line: Effect on blood lipid, oral administration for 1 week to hyperlipidemia-induced rats (blood biochemical tests). Conditions: 500 mg/kg oral for 1 week, average ± standard deviation.
For data set [3] the following is noted: pH at saturation.
A further data set concerns rabbit. Conditions: oral; cited from earlier work.
The subject of a further data set is rat. The following applies: oral; cited from earlier work.

These results are taken from patent US8076377B2, “N,N-dimethyl imidodicarbonimidic diamide dicarboxylate, method for producing the same and pharmaceutical compositions comprising the same” (Hanall Pharmaceutical Company, Ltd., priority 2007, dated 2011).

Structures can show the parent of a compound that is named as a salt.

In turn, “metformin (2:1) malonate [Metformin malonate]” displayed a water content in data set [1] (40° C., 75% R.H., day 0) of 5.143 wt %. This compound also displayed a water content in data set [1] (40° C., 75% R.H., day 1) of 5.403 wt %. This compound returned a water content in data set [1] (40° C., 75% R.H., day 2) of 5.288 wt %. The water content in data set [1] (40° C., 75% R.H., day 5) was found to be 5.376 wt %. For the same compound, the water content in data set [1] (60° C., 15% R.H., day 0) amounted to 5.143 wt %. The compound also displayed a water content in data set [1] (60° C., 15% R.H., day 1) of 5.222 wt %. The compound also displayed a water content in data set [1] (60° C., 15% R.H., day 2) of 5.219 wt %. The compound also yielded a water content in data set [1] (60° C., 15% R.H., day 5) of 5.184 wt %. Further, in data set [2], the ALT amounted to 49.0 ± 7.0 IU/L, the AST came out at 136.6 ± 11.6 IU/L, the BUN came out at 15.3 ± 0.9 mg/dL and the “CHO (Cholesterol)” value was determined as 238.2 ± 16.4 mg/dL. Further, in data set [2], the CRE came out at 0.5 ± 0.0 mg/dL, the HDL came to 40.4 ± 1.4 mg/dL, the LDL worked out at 168.3 ± 13.7 mg/dL and the “TG (Triglyceride)” value is 50.3 ± 7.9 mg/dL.
Regarding `CN(C)C(=N)N=C(N)N.O=C(O)CCCC(=O)O` [Metformin glutarate, metformin (2:1) glutarate], the “Saturation pH” value in data set [3] came out at 10.200.
With `CN(C)C(=N)N=C(N)N` [Metformin hydrochloride, metformin hydrochloride, reference compound], in data set [1] (40° C., 75% R.H., day 0), the water content amounted to 0.080 wt %. In data set [1] (40° C., 75% R.H., day 1), this compound gave a water content of 0.069 wt %. In addition, in data set [1] (40° C., 75% R.H., day 2), the water content came to 0.053 wt %. Moreover, the water content in data set [1] (40° C., 75% R.H., day 5) is given as 0.054 wt %. In addition, in data set [1] (60° C., 15% R.H., day 0), the water content is recorded as 0.080 wt %. The compound also showed a water content in data set [1] (60° C., 15% R.H., day 1) of 0.044 wt %. The compound further returned a water content in data set [1] (60° C., 15% R.H., day 2) of 0.047 wt %. Moreover, in data set [1] (60° C., 15% R.H., day 5), the water content is recorded as 0.056 wt %. Moreover, in data set [2], the ALT turned out to be 49.8 ± 4.8 IU/L, the AST turned out to be 126.9 ± 8.4 IU/L, the BUN is 13.6 ± 0.4 mg/dL and the “CHO (Cholesterol)” value turned out to be 277.1 ± 21.8 mg/dL. In data set [2], the CRE was determined as 0.5 ± 0.0 mg/dL, the HDL was found to be 42.5 ± 1.0 mg/dL, the LDL was found to be 198.3 ± 18.5 mg/dL and the “TG (Triglyceride)” value is 37.3 ± 1.5 mg/dL. In addition, the “Saturation pH” value in data set [3] was determined as 2.892.
Take `Cl` [Hydrochloric acid]: the “LD50 (50% lethal dose)” value in the data set on rabbit is recorded as “LD50 900 mg/kg”.
With `CN(C)C(=N)NC(=N)N` [Metformin malate, metformin (2:1) malate], the “Saturation pH” value in data set [3] is reported as 3.950.
For `O=C(O)CCCC(=O)O` [glutaric acid], in the data set on rat, the “LD50 (50% lethal dose)” value is given as “LD50 6000 mg/kg”.
